How the values were obtained:
[1] = molecular target: T1, hERG channel (Homo sapiens, UniProt Q12809); test: hERG channel inhibition assay (patch-clamp, CHO hERG cells); assay type: cell-based; settings: for IC50 / IC20: CHO hERG cells, whole-cell patch-clamp; for IC20: human, CHO cells stably expressing hERG; for hERG IC20 / TLR8 IC50 / hERG IC20 / TLR7 IC50 / hERG IC20 / TLR9 IC50: safety ratio; for hERG IC20 / TLR7 IC50: TLR7 IC50 of ER compounds from Table 1; for hERG IC20 / TLR9 IC50: TLR9 IC50 of ER compounds from Table 1
T1 construct: expressed in transfected cells; host or cells: CHO (Chinese hamster ovary)
T1 sequence (Q12809 whole entry): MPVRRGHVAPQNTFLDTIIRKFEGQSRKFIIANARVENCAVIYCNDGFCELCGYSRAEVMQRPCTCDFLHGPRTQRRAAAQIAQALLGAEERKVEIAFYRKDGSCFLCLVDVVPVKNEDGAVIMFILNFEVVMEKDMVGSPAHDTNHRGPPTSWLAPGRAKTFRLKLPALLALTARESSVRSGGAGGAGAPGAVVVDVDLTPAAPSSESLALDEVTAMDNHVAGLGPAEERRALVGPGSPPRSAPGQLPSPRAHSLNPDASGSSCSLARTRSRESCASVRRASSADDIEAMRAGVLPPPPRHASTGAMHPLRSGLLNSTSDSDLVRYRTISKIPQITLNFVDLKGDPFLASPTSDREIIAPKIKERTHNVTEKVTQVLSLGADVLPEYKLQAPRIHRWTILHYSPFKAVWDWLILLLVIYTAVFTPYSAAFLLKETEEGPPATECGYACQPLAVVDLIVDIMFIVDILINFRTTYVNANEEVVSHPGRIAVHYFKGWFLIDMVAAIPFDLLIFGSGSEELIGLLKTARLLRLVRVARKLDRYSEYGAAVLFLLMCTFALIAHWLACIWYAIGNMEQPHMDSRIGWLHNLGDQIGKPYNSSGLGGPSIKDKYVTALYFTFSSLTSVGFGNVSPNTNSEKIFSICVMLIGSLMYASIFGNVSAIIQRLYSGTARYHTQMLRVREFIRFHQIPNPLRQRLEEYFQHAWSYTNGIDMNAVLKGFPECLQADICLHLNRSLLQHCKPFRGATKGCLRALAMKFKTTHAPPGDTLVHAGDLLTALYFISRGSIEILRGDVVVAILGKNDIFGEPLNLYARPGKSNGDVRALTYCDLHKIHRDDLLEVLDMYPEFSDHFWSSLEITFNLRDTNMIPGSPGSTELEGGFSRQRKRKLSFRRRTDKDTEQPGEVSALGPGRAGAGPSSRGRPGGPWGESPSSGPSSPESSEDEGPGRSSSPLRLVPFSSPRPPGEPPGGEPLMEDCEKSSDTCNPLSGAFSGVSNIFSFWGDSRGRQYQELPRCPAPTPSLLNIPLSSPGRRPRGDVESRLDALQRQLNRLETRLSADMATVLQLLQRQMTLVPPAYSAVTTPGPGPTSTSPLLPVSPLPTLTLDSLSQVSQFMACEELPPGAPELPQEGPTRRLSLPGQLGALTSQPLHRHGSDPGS
Method: The hERG K^+ channels were cloned in humans and stably expressed in a CHO (Chinese hamster ovary) cell line. CHOhERG cells were used for patch-clamp (voltage-clamp, whole-cell) experiments. Cells were stimulated by a voltage pattern to activate hERG channels and conduct IKhERG currents (rapid delayed outward rectifier potassium current of the hERG channel). After the cells were stabilized for a few minutes, the amplitude and kinetics of IKhERG were recorded at a stimulation frequency of 0.1 Hz (6 bpm). Thereafter, the test compound was added to the preparation at increasing concentrations. For each concentration, an attempt was made to reach a steady-state effect, usually, this was achieved within 3-10 min at which time the next highest concentration was applied. The amplitude and kinetics of IKhERG are recorded in each concentration of the drug which were compared to the control values (taken as 100%). (references: Redfern WS, Carlsson L, Davis AS, Lynch WG, MacKenzie I, Palethorpe S, Siegl PK, Strang I, Sullivan AT, Wallis R, Camm AJ, Hammond TG. 2003; Relationships between preclinical cardiac electrophysiology, clinical QT interval prolongation and torsade de pointes for a broad range of drugs: evidence for a provisional safety margin in drug development. Cardiovasc. Res. 58:32-45, Sanguinetti MC, Tristani-Firouzi M. 2006; hERG potassium channels and cardiac arrhythmia. Nature 440:463-469, Webster R, Leishman D, Walker D. 2002; Towards a drug concentration effect relationship for QT prolongation and torsades de pointes. Curr. Opin. Drug Discov. Devel. 5:116-26).
Table 3. hERG and safety ratio results

[2] = Human microsome stability assay; assay type: in vitro ADME; settings: 1 µM test compound, 0.5 mg/mL liver microsomal protein, 37 °C
Outline: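 Test compound at 1 µM was incubated with human liver microsomes (0.5 mg/mL protein) and an NADPH-regenerating system in 100 mM potassium phosphate, pH 7.4, at 37 °C. Samples were taken at 0–30 min and quenched with acetonitrile. Remaining compound was quantified by LC-MS/MS, with no-NADPH controls.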

Clearance of Human microsome [2] [mL/min/kg]	SMILES	IC50 [1] [µM]	IC20 [1] [µM]	hERG IC20 / TLR8 IC50 [1]	hERG IC20 / TLR7 IC50 [1]	hERG IC20 / TLR9 IC50 [1]
6.34	C[C@@H]1Cc2cnc(N3CCN(C[C@H]4CN(c5ccc(C#N)c6ncccc56)C[C@@H](C)O4)CC3)cc2CN1 (single isomer, unassigned) [Example 77]	> 20	> 10	>1515.2	>885.0	>86.9
7.55	C[C@@H]1Cc2cc(N3CCN(C[C@H]4CN(c5ccc(C#N)c6ncccc56)C[C@@H](C)O4)CC3)ncc2CN1 (single isomer, unassigned) [Example 70]	> 20	> 10	>2439.0	>390.6	>120.91
6.82	C[C@@H]1CN(c2ccc(C#N)c3ncccc23)C[C@H](CN2CCN(c3ccc4c(c3)C(O)CNC4)CC2)O1 (stereo partly drawn) [Example 22, 5-[(2S,6R)-2-[[4-(4-hydroxy-1,2,3,4-tetrahydroisoquinolin-6-yl)piperazin-1-yl]methyl]-6-methyl-morpholin-4-yl]quinoline-8-carbonitrile]	> 20	> 10	>520.8	>259.7	>222.7
6.15	C[C@@H]1CN(c2ccc(C#N)c3ncccc23)C[C@H](CN2CCN(c3cc4c(cn3)C[C@H](C)NC4)CC2)O1 (single isomer, unassigned) [Example 76]	> 20	> 10	>1960.8	>714.3	>102.7

The remaining lines, values behind:

SMILES	Clearance of Human microsome [2] [mL/min/kg]	IC50 [1] [µM]	IC20 [1] [µM]	hERG IC20 / TLR8 IC50 [1]	hERG IC20 / TLR7 IC50 [1]	hERG IC20 / TLR9 IC50 [1]
C[C@@H]1CN(c2ccc(C#N)c3ncccc23)C[C@H](CN2CCN(c3cnc4c(c3)CCNC4)CC2)O1 [Example 23, 5-[(2R,6S)-2-methyl-6-[[4-(5,6,7,8-tetrahydro-1,7-naphthyridin-3-yl)piperazin-1-yl]methyl]morpholin-4-yl]quinoline-8-carbonitrile]	6.15	> 20	> 10	>934.6	>170.6	>170.1
C[C@@H]1CN(c2ccc(C#N)c3ncccc23)C[C@H](CN2CCN(c3cc4c(cn3)CCNC4)CC2)O1 [Example 20, 5-[(2R,6S)-2-methyl-6-[[4-(5,6,7,8-tetrahydro-2,6-naphthyridin-3-yl)piperazin-1-yl]methyl]morpholin-4-yl]quinoline-8-carbonitrile]	6.43	> 20	> 10	>1666.7	>1298.7	>139.1
C[C@@H]1CN(c2ccc(C#N)c3ncccc23)C[C@H](CN2CCN(c3cc4c(cn3)CCN[C@@H]4C)CC2)O1 (single isomer, unassigned) [Example 74]	7.39	> 20	> 10	>2857.1	>1470.6	>112.1
C[C@@H]1CN(c2ccc(C#N)c3ncccc23)C[C@H](CN2CCN(c3ccc4c(n3)CNCC4)CC2)O1 [Example 69, 5-[(2R,6S)-2-methyl-6-[[4-(5,6,7,8-tetrahydro-1,7-naphthyridin-2-yl)piperazin-1-yl]methyl]morpholin-4-yl]quinoline-8-carbonitrile]	6.23	> 20	8.65	1879.8	697.4	104.3
C[C@@H]1CN(c2ccc(C#N)c3ncccc23)C[C@H](CN2CCN(c3ccc(Cl)cc3)CC2)O1 [Example R2, 5-[(2S,6R)-2-[[4-(4-chlorophenyl)piperazin-1-yl]methyl]-6-methyl-morpholin-4-yl]quinoline-8-carbonitrile, reference compound]	15.43	0.77	0.28	0.8	1.3	0.04
C[C@@H]1CN(c2ccc(C#N)c3ncccc23)C[C@H](CN2CCN(c3ccc4c(c3)CNC4)CC2)O1 [Example 7, 5-[(2S,6R)-2-[(4-isoindolin-5-ylpiperazin-1-yl)methyl]-6-methyl-morpholin-4-yl] quinoline-8-carbonitrile]	8.75	> 20	5.74	194.6	146.5	64.5
C[C@@H]1CN(c2ccc(C#N)c3nccnc23)C[C@H](CN2CCN(c3ccc4c(n3)CN[C@H]4C)CC2)O1 (single isomer, unassigned) [Example 78]	7.50	–	–	–	–	–

— patent publication EP3807270B1, “NOVEL HETEROARYL HETEROCYCLYL COMPOUNDS FOR THE TREATMENT OF AUTOIMMUNE DISEASE” (F. Hoffmann-La Roche AG, priority 2018, dated 2019)
